Source: patent US20040180395A1, “Method for detecting calpain3 activity in a biological sample and peptides for implementing said method” (priority 2001, published 2004)
Primed or numbered codes have the meaning given here. The star is where a group is joined. Mca = COc1ccc2c(CC(=O)*)cc(=O)oc2c1; Dnp′ = not defined here

Columns and labels:
[1] = target: T1, Calpain 2 (Rattus norvegicus, UniProt Q07009); test: Assay of specificity of autolytic-site peptide cleavage (FRET fluorescence) by commercial calpain 2; format: biochemical; details: calpain 2, rat recombinant; 10 mM CaCl2; peptide 1.9 μM; 37° C.; FIG. 2
T1 construct: purchased Calbiochem; host or cells: E. coli
T1 sequence (Q07009 1-700): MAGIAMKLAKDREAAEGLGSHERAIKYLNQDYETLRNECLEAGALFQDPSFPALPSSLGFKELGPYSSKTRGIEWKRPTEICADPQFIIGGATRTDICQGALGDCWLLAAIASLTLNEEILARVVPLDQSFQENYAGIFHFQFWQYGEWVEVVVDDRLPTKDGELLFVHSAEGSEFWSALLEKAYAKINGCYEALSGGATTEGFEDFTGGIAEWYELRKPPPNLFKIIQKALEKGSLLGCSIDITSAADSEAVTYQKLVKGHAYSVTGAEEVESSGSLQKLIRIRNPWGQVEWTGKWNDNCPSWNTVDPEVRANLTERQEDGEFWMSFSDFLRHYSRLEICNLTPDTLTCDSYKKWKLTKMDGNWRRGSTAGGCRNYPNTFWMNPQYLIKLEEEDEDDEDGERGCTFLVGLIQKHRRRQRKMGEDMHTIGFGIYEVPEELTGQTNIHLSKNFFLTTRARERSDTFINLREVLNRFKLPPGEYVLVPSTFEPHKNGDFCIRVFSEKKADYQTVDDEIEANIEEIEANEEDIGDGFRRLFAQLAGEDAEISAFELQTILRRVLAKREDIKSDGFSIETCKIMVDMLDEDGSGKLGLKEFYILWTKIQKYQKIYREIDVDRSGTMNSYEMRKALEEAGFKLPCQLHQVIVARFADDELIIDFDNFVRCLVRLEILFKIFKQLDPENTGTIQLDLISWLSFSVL
T1 sequence (Q64537 87-270 partner limits assumed): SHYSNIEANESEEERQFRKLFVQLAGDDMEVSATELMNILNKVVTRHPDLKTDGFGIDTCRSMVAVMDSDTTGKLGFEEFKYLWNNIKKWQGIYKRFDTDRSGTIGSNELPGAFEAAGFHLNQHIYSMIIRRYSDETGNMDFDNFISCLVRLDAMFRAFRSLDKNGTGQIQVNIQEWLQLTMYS
Experimental: (§1) 1/ Fluorometer: SpectraMax Gemini XS Microplate fluoro-meter (molecular Devices).
Calpain 2: rat, recombinant, E. coli (Calbiochem)
(§2) Final volume of 200 μl; calcium (CaCl2) 10 mM final concentration; fluorescent peptides 1.9 μM final concentration.
(§3) The reaction is carried out at 37° C., either over one hour (with in this case measurement of fluorescence every 50 seconds) or over 6 hours (measurement every 2 minutes).
(§4) The medium is agitated between each measurement. The wavelengths used for detecting the fluorescence of the peptides are:
(§5) Excitation wavelengths of Mca: 325 nm.
(§6) Emission wavelengths of […]: 392 nm.
(§7) Resuspension buffer for commercial calpains: 100 mM NaCl, 5 mM EDTA, 50 Mm TrisHCl, 5 mM β-mercaptoethanol, 40% glycerol, pH=7.8. Storage at ambient temperature. Resuspension buffer for the fluorescent peptides: the peptides are resuspended at 1 mg/ml in 100% DMSO.
(§8) Reaction buffer: 100 mM NaCl, 50 mM HEPES, 10 mM DTT, 1 mM EDTA, 10% glycerol, 0.1% CHAPS, 100 ng/μl BSA, pH=7.4, filtration. Storage at ambient temperature.
(§9) Before verifying whether calpain 3 can cleave the peptides corresponding to its autolytic sites, a first assay consisted in verifying that these peptides (site 1, site 2, site 3) could not be cleaved by other proteases, in particular by ubiquitous calpains (see FIG. 2).

[2] = tested on: calpain 3; test: Cleavage of autolytic-site peptides by extracts of C2C12 cells transfected or not transfected with the plasmid encoding calpain 3; format: biochemical, murine; details: FIG. 3; for difference in cleavage activity between calpain 3-transfected and untransfected cells: C2C12 extracts, efficiency of transfection less than 10%; for activity of C2C12 extracts on the peptide (fluorescence): transfected or untransfected C2C12 extracts
Experimental: as §2, §3, §5, §6, §8
Cell Lines Used: C2C12: murine myoblasts;
Medium used for C2C12: DMEM+10% FCS
The desired cells are trypsinized and then the wells are seeded in such a way that the cells are at 50-80% confluency the following day.
Allow the cells to grow at 37° C./7% CO2.
(§10) Principle: The animal cells, which may or may not be transfected, are lysed for the purpose of preparing protein extracts the properties of which may be studied.
(§11) The culture medium is removed from the wells and the wells are washed with PBS (phosphate buffered Dulbecco solution (without calcium, or magnesium, or sodium bicarbonate)—Gibco BRL).
(§12) The cells are harvested and centrifuged at 500 g for 10 min at 4° C.
(§13) The supernatant is removed and the cells are taken up in the lysis buffer (50 mM HEPES, 1 mM DTT, 0.1 mM EDTA, 0.1% CHAPS, pH=7.4) in a proportion of 700 μl of lysis buffer per well.
(§14) The buffer is allowed to act at 4° C. for 5 minutes. Centrifugation is carried out at 10 000 g/10 minutes/4° C.
(§15) The supernatant is recovered and stored at −20° C.
It is known that calpain 3 has greater stability in muscle cells due to the presence of titin. For the purpose of proving that calpain 3 could cleave its own autolytic sites, it was therefore overexpressed in C2C12 cells by transfecting these cells with a plasmid encoding calpain 3. A control transfection with pECFP was carried out at the same time as the transfection with the plasmid encoding calpain 3. The efficiency of transfection on the C2C12s is less than 10%. The proteins were then extracted and their activity was assayed on the autolytic sites (FIG. 3).

[3] = tested on: calpain 3; test: Cleavage of autolytic-site peptides by extracts of normal (+/+) or calpain 3-deficient (−/−) mouse myoblasts; format: biochemical; details: myoblast extracts; for cleavage activity on the peptide / difference in cleavage activity between +/+ and −/− cells: reaction over 1 h, FIG. 4; for cleavage activity, +/+ versus −/− cell extracts: reaction over 6 h, FIG. 6
Experimental: as §2, §3, §5, §6, §8, §10, §11, §12, §13, §14, §15
The system is then assayed on extracts of cell cultures deficient or not deficient in calpain 3. To do this, mice deficient for the calpain 3 gene, for which myogenic cell cultures have been derived [Richard, 2000], are used. Extracts of cultures of calpain 3-deficient muscle cells (−/−cells) can therefore be compared with extracts of cultures of normal muscle cells (+/+cells). Initially, the assay was carried out on undifferentiated cells (myoblasts) (FIG. 4).

[4] = target: T2, Calpain 1 (Homo sapiens, UniProt P07384); test: Assay of specificity of autolytic-site peptide cleavage (FRET fluorescence) by commercial calpain 1; format: biochemical; details: calpain 1, human erythrocytes; 10 mM CaCl2; peptide 1.9 μM; 37° C.; FIG. 2
T2 construct: Calpain 1: human erythrocytes (Calbiochem); purchased Calbiochem; host or cells: human erythrocytes
T2 sequence (P07384 1-714): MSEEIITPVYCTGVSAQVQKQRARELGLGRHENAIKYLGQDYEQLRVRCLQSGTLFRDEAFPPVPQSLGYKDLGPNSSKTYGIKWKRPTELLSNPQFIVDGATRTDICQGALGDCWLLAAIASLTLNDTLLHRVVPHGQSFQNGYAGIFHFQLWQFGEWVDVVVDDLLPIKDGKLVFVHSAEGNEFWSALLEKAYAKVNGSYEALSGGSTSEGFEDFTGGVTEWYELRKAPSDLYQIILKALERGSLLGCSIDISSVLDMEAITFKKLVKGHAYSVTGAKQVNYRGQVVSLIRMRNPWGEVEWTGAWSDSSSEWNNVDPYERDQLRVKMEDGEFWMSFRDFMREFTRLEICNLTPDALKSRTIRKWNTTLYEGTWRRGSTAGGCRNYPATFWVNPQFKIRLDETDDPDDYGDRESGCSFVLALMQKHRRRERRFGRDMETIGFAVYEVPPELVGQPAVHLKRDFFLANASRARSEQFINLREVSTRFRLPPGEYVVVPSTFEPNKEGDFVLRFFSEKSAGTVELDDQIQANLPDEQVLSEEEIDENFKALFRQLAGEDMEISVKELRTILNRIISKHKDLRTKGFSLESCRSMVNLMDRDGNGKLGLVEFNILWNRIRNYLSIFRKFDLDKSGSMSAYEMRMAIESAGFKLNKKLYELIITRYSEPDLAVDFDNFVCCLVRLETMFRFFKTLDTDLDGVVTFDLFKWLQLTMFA
T2 sequence (P04632 1-268 partner): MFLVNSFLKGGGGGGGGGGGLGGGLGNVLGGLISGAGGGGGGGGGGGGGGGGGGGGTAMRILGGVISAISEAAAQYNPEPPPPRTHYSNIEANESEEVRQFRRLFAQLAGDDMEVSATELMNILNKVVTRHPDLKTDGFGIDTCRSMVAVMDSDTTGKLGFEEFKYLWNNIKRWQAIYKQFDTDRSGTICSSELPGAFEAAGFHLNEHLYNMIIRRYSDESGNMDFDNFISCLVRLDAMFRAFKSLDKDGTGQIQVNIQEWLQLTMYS
Experimental: as §1
Calpain 1: human erythrocytes (Calbiochem)
as §2, §3, §4, §5, §6, §7, §8, §9

[5] = tested on: calpain 3; test: Cleavage of autolytic-site peptides by extracts of normal (+/+) or calpain 3-deficient (−/−) mouse quadriceps; format: biochemical; details: quadriceps lysates, over 6 hours; FIG. 7
Experimental: as §2, §3, §5, §6, §8
Principle: The muscles are ground for the purpose of preparing protein extracts the properties of which may then be studied.
Material: Quadriceps of normal mice and of calpain 3-deficient mice.
The muscles are ground in liquid nitrogen. The ground material is resuspended in the lysis buffer (cf. composition in the cell lysis protocol above) in a proportion of 19 μl of lysis buffer per milligram of ground tissue.
The buffer is allowed to act for 10 minutes in ice. Centrifugation is carried out at 10 000 g for 10 minutes at 4° C.
as §15
Activity assays were also carried out on lysates of muscles from mice deficient or not deficient in calpain 3. The assays were carried out using quadriceps lysates (FIG. 7).

[6] = tested on: calpain 3; test: Cleavage of autolytic site 3 peptide by extracts of normal (+/+) or calpain 3-deficient (−/−) mouse myotubes; format: biochemical; details: myotube extracts; FIG. 5
Experimental: as §2, §3, §5, §6, §8, §10, §11, §12, §13, §14, §15
Specifically, calpain 3 is theoretically expressed more in myotubes than in myoblasts.

Substance	cleavage activity on the peptide (fluorescence over time vs peptide without enzyme) [1]	difference in cleavage activity between calpain 3-transfected and untransfected cells [2]	activity of C2C12 extracts on the peptide (fluorescence) [2]	cleavage activity on the peptide [3]	cleavage activity, +/+ versus −/− cell extracts [3]	cleavage activity on the peptide (fluorescence over time vs peptide without enzyme) [4]	activity of cleavage, +/+ versus −/− tissue extracts [5]	difference in cleavage activity between +/+ and −/− cells [3]	cleavage activity, −/− versus +/+ cell extracts [6]
Mca-NMDNISLL-Dnp [site 2]	no cleavage activity	no difference can be detected	slight increase in fluorescence	No cleavage activity could be detected	greater in extracts of +/+cells	no cleavage activity	by the +/+ tissue extracts is greater than that of the −/−tissue extracts		
Mca-PVQYETR-Dnp (Mca-PVQYETR-{Dnp′}) [site 3, fluorescent FRET peptide of calpain 3 autolytic site 3, Mca donor and Dnp acceptor]	no cleavage activity	greater in the transfected cells		Cleavage activity is detected	greater in extracts of −/−cells than in extracts of +/+cells	no cleavage activity	by the −/−tissue extracts is greater than that of the +/+tissue extracts	no difference in activity is visible	in the extracts of −/−cells is greater than in the extracts of +/+cells
Mca-NMTYGTS-Dnp (Mca-NMTYGTS-{Dnp′}) [site 1, fluorescent FRET peptide of calpain 3 autolytic site 1, Mca donor and Dnp acceptor]	no cleavage activity	no difference can be detected	slight increase in fluorescence	low cleavage activity	greater in extracts of +/+cells	no cleavage activity	by the +/+ tissue extracts is greater than that of the −/−tissue extracts	very small	
